# Paper doi:10.1101/2023.08.28.555062, “Discovery of 2-amide-3-methylester thiophenes that target SARS-CoV-2 Mac1 and repress coronavirus replication, validating Mac1 as an anti-viral target” (bioRxiv, 2023)
# pIC50: −log10 of the molar value. “Also recorded” adds a separate entry of the source. Where two headings read alike, the source gives them in different places.
# Key:
# [1] = target: T1, SARS-CoV-2 Mac1 (Severe acute respiratory syndrome coronavirus 2, UniProt P0DTD1); assay: biochemical; format: binding; details: for drop in potency relative to 1: from IC50 values
# [2] = target: T2, ALC1 (Homo sapiens, UniProt Q86WJ1); assay: FRET profiling / potency against ALC1 with YFP-GAP(PAR); format: binding; details: for inhibition at 1000 µM: read-out: maximum inhibition
# T2 sequence (Q86WJ1 704-897 limits assumed): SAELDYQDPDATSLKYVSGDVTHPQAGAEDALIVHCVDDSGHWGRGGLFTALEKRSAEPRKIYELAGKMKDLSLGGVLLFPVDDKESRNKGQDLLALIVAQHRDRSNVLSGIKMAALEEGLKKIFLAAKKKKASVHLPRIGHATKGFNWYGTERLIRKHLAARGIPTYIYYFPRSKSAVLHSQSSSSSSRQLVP
# [3] = target: macrodomains from SARS-CoV (Severe acute respiratory syndrome coronavirus, UniProt P0C6X7)
# [4] = system: Calu-3 cells; assay: MTT cell viability assay, Calu-3 cells; format: cell-based, human; details: 24 hours
# Description: (§1) DBT, L929, and Calu-3 cells were treated with 27 for 24 hours. Cellular metabolic activity was assessed using a CyQUANT MTT Cell Proliferation Assay (Thermo Fisher Scientific) following manufacturer’s instructions.
# [5] = system: SARS-CoV-2; assay: SARS-CoV-2 replication in Calu-3 cells with or without IFNγ, plaque assay; format: cell-based; details: 48 hpi
# Description: Cells were infected with recombinant MHV-JHM or SARS-CoV-2 at a multiplicity of infection (MOI) of 0.1 PFU/cell with a 45–60 min adsorption phase, unless otherwise stated. Progeny cell-associated and cell-free virus was collected at indicated timepoints and viral titers were determined by plaque assay on Hela-MHVR (MHV) or Vero E6 (SARS-CoV-2) cells. All statistical analysis for viral infections was performed using GraphPad Prism software with an ordinary one-way ANOVA with a Dunnet’s test to correct for multiple comparisons to assess differences between treated and untreated samples. Graphs are expressed as means ± standard errors of the means. The n value represents the number of biological replicates for each group. Significant p values were denoted with asterisks. *, p≤0.05; **, p≤0.01, ***, p≤0.001, ****, p≤0.0001.
# [6] = target: macrodomains from MERS-CoV (Middle East respiratory syndrome-related coronavirus, UniProt K9N7C7); assay: biochemical; format: binding
# Chain of macrodomains from MERS-CoV (K9N7C7 1110-1276 limits assumed): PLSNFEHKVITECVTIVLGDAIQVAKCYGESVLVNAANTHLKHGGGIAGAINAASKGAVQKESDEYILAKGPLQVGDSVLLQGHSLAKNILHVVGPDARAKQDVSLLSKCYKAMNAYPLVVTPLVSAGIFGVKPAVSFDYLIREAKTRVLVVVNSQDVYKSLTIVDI
# [7] = system: DBT cells; assay: MTT cell viability assay, DBT cells; format: cell-based, mouse; details: 24 hours
# Description: as §1
# [8] = system: L929 cells; assay: MTT cell viability assay, L929 cells; format: cell-based, mouse; details: 24 hours
# Description: as §1
# [9] = system: human macrodomains; assay: FRET profiling against panel of human macrodomains and ARH3; format: binding
# [10] = target: T1, SARS-CoV-2 Mac1; format: binding; details: 100 μM concentration; ± standard deviation of three replicates
# [11] = system: viral macrodomains; assay: FRET profiling against panel of other viral macrodomains; format: binding; details: up to 100 μM
# [12] = target: PARP9 MD1 (Homo sapiens, UniProt Q8IXQ6); assay: FRET profiling / potency against PARP9 MD1; format: binding
# [13] = FRET assay, SARS-CoV-2 Mac1, text and Fig. 1C
# [14] = Table 2, synthesized analogs, n=3, read-out: IC50 (pIC50 ± SEM): IC50 (converted)
# [15] = IC50 (pIC50 ± SEM): IC50, Table 2, synthesized analogs, n=3
# [16] = Table 1, commercial analogs, n=3, given with negative sign, read-out: IC50 (pIC50 ± SEM): pIC50 ± SEM (converted)
# [17] = FRET assay, SARS-CoV-2 Mac1, text and Fig. 1C, read-out: IC50
# [18] = IC50, FRET assay, SARS-CoV-2 Mac1, text and Fig. 1C
smiles,measurement,setting,value
COC(=O)c1c(NC(=O)C2C3CCC(CC3)C2C(=O)O)sc2c1CCCC2 (stereo not shown) [Compound 12],IC50,[1]; [13],completely abolished the inhibitory effect
same,IC50,"[1]; Table 1, commercial analogs, n=3, read-out: IC50 (pIC50 ± SEM): IC50 (converted)",> 100 µM
"N#Cc1c(NC(=O)C2CC=CCC2C(=O)O)sc2c1CCCCC2 (stereo not shown) [Compound 21, 6-[(3-cyano-5,6,7,8-tetrahydro-4H-cyclohepta[b]thiophen-2-yl)carbamoyl]cyclohex-3-ene-1-carboxylic acid]",IC50,[1]; [13],inactive
same,IC50,[1]; [14],> 100 µM
"COC(=O)c1c(NC(=O)[C@@H]2CCCC[C@H]2C(=O)OC)sc2c1CCCCCC2 [Compound 28, Methyl 2-[(1R,2R)-2-(methoxycarbonyl)cyclohexaneamido]-4H,5H,6H,7H,8H,9H-cycloocta[b]thiophene-3-carboxylate]",IC50,[1]; [13],completely inactive
same,IC50,[1]; [14],> 100 µM
"COC(=O)c1c(NC(=O)C2CC=CCC2C(=O)OC)sc2c1CCCCC2 (stereo not shown) [Compound 23, Methyl 2-[6-(methoxycarbonyl)cyclohex-3-ene-1-amido]-4H,5H,6H,7H,8H-cyclohepta[b]thiophene-3-carboxylate]",IC50,"[1]; Table 2, synthesized analogs, n=3, given with negative sign, read-out: IC50 (pIC50 ± SEM): pIC50 ± SEM (converted)",10.7 µM
"COC(=O)c1c(NC(=O)[C@H]2CCCC[C@@H]2C(=O)O)sc2c1CCCCC2 [Compound 25, (1S,2S)-2-{[3-(methoxycarbonyl)-4H,5H,6H,7H,8H-cyclohepta[b]thiophen-2-yl]carbamoyl}cyclohexane-1-carboxylic acid]",pIC50,[1]; [15],< 4.00
COC(=O)c1c(NC(=O)C2CCCCC2C(=O)O)sc2c1CCCC2 (stereo not shown) [Compound 17],IC50,[1]; [16],18.6 µM
"COC(=O)c1c(NC(=O)[C@@H]2CCCC[C@H]2C(=O)O)sc2c1CCCCCC2 [Compound 27, (1R,2R)-2-{[3-(methoxycarbonyl)-4H,5H,6H,7H,8H,9H-cycloocta[b]thiophen-2-yl]carbamoyl}cyclohexane-1-carboxylic acid]",pIC50,[2],5.52
same,inhibition at 10 µM,[2],≥ 50%
same,inhibition at 100 µM,[2],≥ 50%
same,inhibition at 1000 µM,[2],63%
same,inhibition %,[3],64%
same,cytotoxicity / viability (MTT),[4],does not affect the viability; also recorded: did not lead to any cytotoxicity
same,antiviral effect on SARS-CoV-2,[5]; absence of IFNγ,"minimal, if any, antiviral effects"
same,reduction in virus replication,"[5]; presence of IFNγ (100 U/ml), 25 μM",10–15 fold
same,pIC50,[6],< 4.00
same,inhibition %,[6],43%
same,cytotoxicity / viability (MTT),[7],does not affect the viability; also recorded: did not have any cellular cytotoxicity
same,cytotoxicity / viability (MTT),[8],does not affect the viability; also recorded: did not have any cellular cytotoxicity
same,inhibition of human macrodomains,[9],did not show effective inhibition
"Nc1ncnc2c1ncn2[C@H]1O[C@@H](COP(=O)(O)OP(=O)(O)OC[C@H]2O[C@@H](O)[C@H](O)[C@@H]2O)[C@H](O)[C@@H]1O [ADP-ribose, reference compound]",ΔTm,[10],2.0 ± 0.14 °C
COC(=O)c1c(NC(=O)CCC(=O)O)sc2c1CCCCC2 [Compound 2],ΔTm,[10],0.3 ± 0.12 °C
same,pIC50,[1]; [17],4.32
same,drop in potency relative to 1,[1],3.5 fold
"COC(=O)c1c(NC(=O)C2CC=CCC2C(=O)O)sc2c1CCCCC2 (stereo not shown) [Compound 1, 6-{[3-(methoxycarbonyl)-5,6,7,8-tetrahydro-4H-cyclohepta[b]thiophen-2-yl]carbamoyl}cyclohex-3-ene-1-carboxylic acid]",inhibition at 100 µM,[2],≥ 50%
same,pIC50,"[2]; partial inhibition only, read-out: IC50",5.17
same,inhibition at 1000 µM,[2],58%
same,inhibition of other tested viral macrodomains,[11],did not show effective inhibition
same,inhibition of human macrodomains,[9]; 10 μM and 100 μM,selective towards Mac1 over all human macrodomains
same,pIC50,[1]; [18],4.85
same,pIC50,[12],4.19
same,inhibition at 100 µM,[12]; 100 μM,≥ 70%
COC(=O)c1c(NC(=O)C2CCCCC2C(=O)O)sc2c1CCC2 (stereo not shown) [Compound 16],IC50,[1]; [16],21.9 µM
"COC(=O)c1c(NC(=O)[C@@H]2CCCC[C@H]2C(=O)O)sc2c1CCCCC2 [Compound 26, (1R,2R)-2-{[3-(methoxycarbonyl)-4H,5H,6H,7H,8H-cyclohepta[b]thiophen-2-yl]carbamoyl}cyclohexane-1-carboxylic acid]",pIC50,[1]; [15],5.57
same,pIC50,"[1]; IC50 (pIC50 ± SEM): pIC50 ± SEM, Table 2, synthesized analogs, n=3, given with negative sign",5.56
"COC(=O)c1c(NC(=O)C2CCCCC2C(=O)O)sc2c1CCCCC2 (stereo not shown) [Compound 15r, 2-{[3-(methoxycarbonyl)-4H,5H,6H,7H,8H-cyclohepta[b]thiophen-2-yl]carbamoyl}cyclohexane-1-carboxylic acid]",pIC50,[1]; [15],5.20
same,pIC50,[1]; [18],5.19
"CC(=O)c1c(NC(=O)C2CC=CCC2C(=O)O)sc2c1CCCCC2 (stereo not shown) [Compound 22, 6-[(3-acetyl-5,6,7,8-tetrahydro-4H-cyclohepta[b]thiophen-2-yl)carbamoyl]cyclohex-3-ene-1-carboxylic acid]",IC50,[1]; [13],inactive
same,IC50,[1]; [14],> 100 µM
"O=C(O)c1c(NC(=O)C2CCCCC2C(=O)O)sc2c1CCCCC2 (stereo not shown) [Compound 24, 2-[(2-carboxycyclohexane-1-carbonyl)amino]-5,6,7,8-tetrahydro-4H-cyclohepta[b]thiophene-3-carboxylic acid]",IC50,[1]; [13],without inhibitory activity
same,IC50,[1]; [14],> 100 µM
"COC(=O)c1c(NC(=O)c2ccccc2C(=O)O)sc2c1CCCC2 [Compound 3, 2-{[3-(methoxycarbonyl)-4,5,6,7-tetrahydro-1-benzothiophen-2-yl]carbamoyl}benzoic acid]",ΔTm,[10],0.7 ± 0.24 °C
same,pIC50,[1]; [17],3.96
same,drop in potency relative to 1,[1],7 fold
